{"source": "patent US8491897B2", "about": "“Treatment of neuropathic pain using anti-thrombospondin antibodies” (The Board of Trustees of the Leland Stanford Junior …, priority 2007, dated 2013)", "key": {"[1]": {"test_system": "glutamatergic excitatory synapses in the cortex", "test": "Synapse assay on mouse brain sections (VGlut2/PSD95 co-localized puncta in cortex) after GBP injection", "type": "in vivo, mice", "experimental": "To determine whether GBP similarly blocks synapse formation in vivo, neonatal mice were injected with either GBP or saline, for the first postnatal week, which coincides with the initiation of synapse formation in the brain (see Experimental Procedures). […] At this age P7 glutamatergic synapses in the cortex are predominantly VGlut2 positive (Miyazaki et al., The Eur. J. of Neuroscience, 17:2563-2572, 2003). Therefore, co-immunostaining of sagital brain sections from (P7) saline or GBP-injected, mice was carried out with antibodies against VGlut2 and PSD95 and the number of co-localized pre- and post-synaptic puncta was quantified to determine synaptic density in the cortex of these mice. […] This difference was mainly due to a severe decrease in synapse number in half of the GBP injected animals. […] GBP injection affected both VGlut2 and PSD95 puncta by reducing their number, size, and co-localization (FIG. 7E) similar to its effect on synaptic puncta in vitro (FIG. 7A). […] It is interesting that the effect of GBP in vivo is an “all or none” effect rather than a gradual decrease in synapse number, and that only 50% of the mice responded to GBP injection. This could be due to a critical threshold concentration of GBP necessary to be effective in blocking synapse formation, which might only be achieved in some of the mice. In three repeated experiments, however, we observed only half of the mice were affected by GBP, even when we increased the total dosage and frequency from once a day to three times per day (see below and Experimental Procedures), and even though an inbred strain of mice was used.\nBrains were immersed in 4% paraformaldehyde (PFA), fixed overnight at 4° C., and cryo-protected in 30% sucrose. For synaptic staining, tissue was embedded in a 2:1 mixture of 20% sucrose:OCT in PBS, and cryo-sectioned (12 μm). Sections were dried at 37° C., washed three times in PBS, and blocked with 20% normal goat serum (NGS, Invitrogen) in PBS 1 hr. Primary antibodies were diluted in PBS with 0.3% triton and 10% NGS as follows: PSD95 (Zymed, rabbit, 1:500) and VGlut1 and VGlut2 (Chemicon, guinea pig, 1:2500) incubated overnight at 4° C. […]\nThree independent sagital brain sections per animal were stained with pre- and post-synaptic markers and 5 μm confocal scans were performed (optical section width 0.38 μm, 14 optical sections each) at the cortex. […] Merged single optical section images at 1 μm intervals were analyzed using the ImageJ-puncta analyzer option to count for number of co-localized pre- and post-synaptic puncta (5 optical sections per brain section and 15 total images per brain). Average synaptic density per imaged area was calculated for each condition. […]"}, "[2]": {"test": "Weight gain and general health of injected pups", "type": "in vivo, mice", "settings": "400 mg/kg daily or 200 mg/kg three times a day i.p., vs saline", "experimental": "In three independent experiments, two litters of wild type mice (n=3×12, FVB background) were given daily intraperitoneal injections of either a single dose of 400 mg/kg of GBP (Sigma-Aldrich) or a matching volume of saline solution (PBS). In one experiment the mice were injected with 200 mg/kg GBP (n=6) three times a day and the controls received the same volume of saline solution (n=6). […] Samples were blinded during analysis of the barrel cortex plasticity."}, "[3]": {"test_system": "naive rats", "test": "TSP4-induced behavioral hypersensitivity in naive rats (paw withdrawal threshold, von Frey)", "type": "in vivo, rat", "settings": "1 mg/rat bolus i.t., three days after TSP4 (45 ug/rat)"}, "[4]": {"test_system": "RGCs", "test": "RGC neurite outgrowth", "settings": "data not shown"}, "[5]": {"test_system": "RGCs"}}, "note": "Entries after “also recorded” stand apart in the source; their conditions may differ."}
{"smiles": "NCC1(CC(=O)O)CCCCC1", "note": "[Gabapentin, 1-(aminomethyl)cyclohexaneacetic acid]", "values": [{"measurement": "proportion of injected mice that responded (severe reduction of synaptic puncta)", "setting": "[1]; P7 mice", "result": 50, "unit": "%"}, {"measurement": "density of VGlut2/PSD95 excitatory synapses in the cerebral cortex", "setting": "[1]; P7 mice injected i.p. daily in first postnatal week, vs saline, listed as GBP", "result": "significant decrease in the density of excitatory synapses; also recorded: significant decrease in the number of VGlut2-PSD95 synapses"}, {"measurement": "VGlut2/PSD95 synaptic density relative to saline injected values", "setting": "[1]; in the half of the mice that responded", "result": "less than 10%"}, {"measurement": "number of neurons", "setting": "[1]; responding mice", "result": "no apparent effect on the number of neurons"}, {"measurement": "weight gain and general health", "setting": "[2]", "result": "showed no differences"}, {"measurement": "effect on TSP4-induced behavioral hypersensitivity", "setting": "[3]", "result": "blocked the pain-inducing effects of TSP4"}, {"measurement": "neurite outgrowth", "setting": "[4]", "result": "did not affect neurite outgrowth"}, {"measurement": "toxicity to the RGCs", "setting": "[5]", "result": "not toxic"}]}
